Measured values taken from paper PMC6154314, “Evaluation of the Mycobactericidal Effect of Thio-functionalized Carbohydrate Derivatives” (Molecules : A Journal of Synthetic Chemistry and Natural …, 2017).
Values after ≈ are worked out from the molar mass of the structure shown. “Also recorded” adds a separate entry of the source. Like-named read-outs stand apart in the source and are kept apart here.

What was measured:
[1] = tested on: Mycobacterium tuberculosis H37Rv strain (Mtb); assay: Susceptibility of M. tuberculosis in broth culture (OD600 and CFU analysis); format: cell-based; conditions: for MIC50 anti-Mtb (OD) / MIC50: M. tuberculosis H37Rv, broth culture, 96 h; for Bactericidal activity against M. tuberculosis (in words): tested at 1–0.25 mM, OD600; for MIC50: Mycobacterium tuberculosis
[2] = Lipophilicity, octanol/water partition coefficient (LogP); format: physicochemical
Description: The most important parameter of drug candidates is lipophilicity, which determines water solubility, absorption and often cytotoxicity. The lipophilicity of the synthesized compounds was measured as the partition (P) or distribution (D) coefficient. The octanol/water partition/distribution coefficient is a widely used parameter for measuring lipophilicity. The Log P value is the ratio of the concentrations of a neutral substance in two immiscible phases: water and octan-1-ol. Log D is the log partition at a particular pH, and it is usually reserved for partition coefficients measured under conditions in which the solute is partially or completely ionized in the aqueous phase. For all compounds used in this work, the LogP and cLogP values were determined (Table 4). Each compound was also analysed by TLC (thin layer chromatography) and ^1H-NMR to verify its purity. All synthesized and tested compounds were analytically pure. Complete characterization of the products was performed by NMR spectroscopy and HR-MS techniques to confirm their purity and molecular structures.

Staphylococcus aureus = assay: Broth microdilution susceptibility test (CLSI), S. aureus; format: cell-based; conditions: for MIC50: Staphylococcus aureus, read-out: MIC50 anti-S. aureus
Escherichia coli = assay: Broth microdilution susceptibility test (CLSI), E. coli; format: cell-based; conditions: for MIC50: Escherichia coli, read-out: MIC50 anti-E. coli
[3] = tested on: human monocyte-derived macrophages (MDMs); conditions: MTT, 48 h, uninfected MDMs; 50, 30, 30, 25 µM for 6, 16A, 20, 23
[4] = tested on: Mycobacterium tuberculosis in human monocyte-derived macrophages; assay: Bactericidal effect against intracellularly growing tubercle bacilli in human monocyte-derived macrophages (CFU); format: cell-based; conditions: Mtb-infected human MDMs; for Inhibition of growth of intracellularly deposited tubercle bacilli (in words): 48 h, compounds at MIC50 concentrations
bacterium = tested on: bacterium; parameters: method as in PMID 387415, PMID 16707680; conditions: as low as; after siderophore-dependent uptake and intracellular activation; cited from earlier work
[5] = microdilution, Mueller-Hinton broth, 18 h, OD600
[6] = read by OD600, read-out: MIC50 anti-Mtb (OD)
[7] = read by CFU, read-out: MIC50 anti-Mtb (CFU)

Compound | MIC50 [1, 6] | logP [2] | MIC50 (Staphylococcus aureus; [5]) | MIC50 (Escherichia coli; [5]) | also measured
5-thio-D-glucose pentaacetate [Compound 1] | – | – | – | – | MIC50 anti-Mtb (OD) ([1]; read by OD600): MIC50 > 1 mM/OD; Bactericidal activity against M. tuberculosis (in words) [1]: not bactericidal; logP ([2]; octanol/water): −0.51
6-thio-β-D-fructopyranose [Compound 2] | – | – | – | – | MIC50 anti-Mtb (OD) ([1]; read by OD600): MIC50 > 1 mM/OD; Bactericidal activity against M. tuberculosis (in words) [1]: not bactericidal; MIC50 anti-S. aureus (Staphylococcus aureus; [5]): MIC50 > 2 mM/E. coli MIC50 > 2 mM/S. aureus; MIC50 anti-E. coli (Escherichia coli; [5]): MIC50 > 2 mM/E. coli MIC50 > 2 mM/S. aureus; logP ([2]; octanol/water): −1.36
OC[C@@]12CO[C@H](O1)[C@H](O)[C@@H](O)[C@H]2O [Compound 3, 1,6-anhydro-5-C-hydroxymethyl-α-L-altro-pyranose] | > 1000 µM | -2.38 | – | – | Bactericidal activity against M. tuberculosis (in words) [1]: not observed
OC1C(O)C(O)C2(CO2)C(O)C1O (centres unmarked) [Compound 4, 2-C-methylene-myo-inositol oxide] | > 1000 µM | -3.22 | – | – | Bactericidal activity against M. tuberculosis (in words) [1]: not active
CS(=O)(=O)NC[C@H]1OC[C@H](O)[C@@H](O)[C@@H]1O [Compound 5, 1,5-anhydro-6-deoxy-6-methanesulfamido-D-glucitol] | > 1000 µM | -3.6 | > 2000 µM | > 2000 µM | Bactericidal activity against M. tuberculosis (in words) [1]: not active
CC(=O)OC[C@H]1O[C@@H](S[C@@H]2CC(=O)[C@@H]3OC[C@H]2O3)[C@H](OC(C)=O)[C@@H](OC(C)=O)[C@@H]1OC(C)=O [Compound 6] | – | -1.13 | 2500 µM (≈ 1230 µg/mL) | 5000 µM (≈ 2450 µg/mL) | MIC50 [1, 7]: 50 µM (≈ 24.5 µg/mL); OD[570nm] ± SD [3]: 2.163 ± 0.054; Inhibition of growth of intracellularly deposited tubercle bacilli (in words) [4]: able to inhibit the growth; also recorded: significantly inhibit the growth
O=C1C[C@@H](S[C@@H]2O[C@H](CO)[C@@H](O)[C@H](O)[C@H]2O)[C@H]2CO[C@@H]1O2 [Compound 7, 1,6-anhydro-3-deoxy-4-S-β-D-glucopyranosyl-D-glycero-hexopyranos-2-ulose] | – | -2.05 | > 10000 µM | > 10000 µM | MIC50 [1, 7]: 500 µM (≈ 161 µg/mL); Fold increase of the concentration (MIC50) needed to inhibit Mtb relative to compound 6 [1]: 10 times
O=C(O)c1ccccc1S[C@@H]1CC(=O)[C@@H]2OC[C@H]1O2 [Compound 8, 1,6-anhydro-3-deoxy-4-S-β-salicylyl-D-glycero-hexopyranos-2-ulose] | – | 1.28 | > 10000 µM | > 10000 µM | MIC50 [1, 7]: 200 µM (≈ 56.1 µg/mL); Fold increase of the concentration (MIC50) needed to inhibit Mtb relative to compound 6 [1]: 4 times
CC(=O)OC[C@H]1O[C@@H](S[C@@H]2CC(=O)[C@@H]3OC[C@H]2O3)[C@H](OC(C)=O)[C@@H](OC(C)=O)[C@H]1OC(C)=O [Compound 9] | > 150 µM | -1.13 | – | – | Fold increase of the concentration (MIC50) needed to inhibit Mtb relative to compound 6 [1]: at least 3 times
CC(=O)N[C@H]1CO[C@H](CO)[C@@H](O)[C@@H]1O [Compound 10, 2-acetamido-2-dexy-1,5-anhydro-D-mannitol] | > 1000 µM | -2.75 | > 10000 µM | > 10000 µM | –
CC1(C)O[C@H]2O[C@H](C3CO3)[C@H](O)[C@H]2O1 (stereo partly drawn) [Compound 11, 1,2-O-isopropylidene-5,6-anhydro-D-glucofuranose] | 750 µM (≈ 152 µg/mL) | -0.39 | – | – | –
COCC(OC(C)=O)[C@H]1O[C@@H]2OC(C)(C)O[C@@H]2[C@H]1OC(C)=O (stereo partly drawn) [Compound 12, 1,2-O-isopropylidene-3,5-di-O-acetyl-6-methoxy-D-glucofuranose] | > 1000 µM | -0.2 | > 10000 µM | > 5000 µM | –
O=[N+]([O-])CC1(O)O[C@H](CO)[C@@H](O)[C@H](O)[C@H]1O (stereo partly drawn) [Compound 13, 1-C-nitromethyl-D-gluco-pyranose] | > 1000 µM | -4.22 | > 10000 µM | > 10000 µM | –
NC(=S)NN=C1C=C[C@H]2CO[C@@H]1O2 [Compound 14, 1,6-anhydro-3,4-dideoxy-α-D-glycero-hex-3-enopyranos-2-thiosemicarbazone] | 350 µM (≈ 69.7 µg/mL) | -0.18 | > 5000 µM | > 5000 µM | –
NC(=S)NN=C1CC[C@H]2CO[C@@H]1O2 [Compound 14A, 1,6-anhydro-3,4-dideoxy-α-D-glycero-hexopyranos-2-thiosemicarbazone] | > 1000 µM | -0.29 | > 1250 µM | > 2500 µM | –
CC(=O)OC[C@H]1O[C@@H](O[C@H]2[C@H](OC(C)=O)[C@@H](OC(C)=O)[C@H](S[C@@H]3CC(=NNC(N)=S)[C@@H]4OC[C@H]3O4)O[C@@H]2COC(C)=O)[C@H](OC(C)=O)[C@@H](OC(C)=O)[C@H]1OC(C)=O [Compound 16A] | – | – | > 1250 µM | – | MIC50 [1, 7]: 30 µM (≈ 25.6 µg/mL); Concentration inhibiting the growth of E. coli (Escherichia coli): below 1 mM; MIC50 (Escherichia coli; microdilution, Mueller-Hinton broth, 18 h, OD600, printed in µM): > 150 µM; Inhibition of growth of intracellularly deposited tubercle bacilli (in words) [4]: able to inhibit the growth; Decrease of the number of intracellularly growing mycobacteria ([4]; MOI 1:10, 48 h, compound at MIC (30 µM for 16A), CFU vs untreated control): ~61%
CC(=O)OC[C@H]1O[C@@H](O[C@H]2[C@H](OC(C)=O)[C@@H](OC(C)=O)[C@H](S[C@@H]3CC(=O)[C@@H]4OC[C@H]3O4)O[C@@H]2COC(C)=O)[C@H](OC(C)=O)[C@@H](OC(C)=O)[C@H]1OC(C)=O [Compound 16] | 500 µM (≈ 389 µg/mL) | -2.18 | > 5000 µM | > 5000 µM | Fold increase of the concentration (MIC50) needed to inhibit Mtb relative to compound 6 [1]: 10 times
CC(=O)OC[C@H]1O[C@@H](O[C@H]2[C@H](OC(C)=O)[C@@H](OC(C)=O)[C@H](SC34CC5CC(CC(C5)C3)C4)O[C@@H]2COC(C)=O)[C@H](OC(C)=O)[C@@H](OC(C)=O)[C@H]1OC(C)=O [Compound 19] | 500 µM (≈ 393 µg/mL) | – | – | – | –
Nc1nnc(S[C@@H]2CC(=O)[C@@H]3OC[C@H]2O3)s1 [Compound 23, (1R,2R,5R)-2-((5-amino-1,3,4-thiadiazol-2-yl)-thio)-6,8-dioxabicyclo[3.2.1]octan-4-one] | – | 1.37 | > 625 µM | > 1250 µM | MIC50 [1, 7]: 25 µM (≈ 6.48 µg/mL); Concentration inhibiting the growth of S. aureus (Staphylococcus aureus): ≤ 1 mM; Concentration inhibiting the growth of E. coli (Escherichia coli): below 1 mM; OD[570nm] ± SD [3]: 2.428 ± 0.031; Inhibition of growth of intracellularly deposited tubercle bacilli (in words) [4]: able to inhibit the growth; also recorded: significantly inhibit the growth; melting point: 140 to 142 °C
O=C1C[C@@H](SC2=NCCS2)[C@H]2CO[C@@H]1O2 [Compound 26, (1R,2R,5R)-2-((4,5-dihydrothiazol-2-yl)-thio)-6,8-dioxabicyclo[3.2.1]octan-4-one] | – | 1.13 | > 2500 µM | > 2500 µM | MIC50 [1, 7]: 50 µM (≈ 12.3 µg/mL); Concentration inhibiting the growth of E. coli (Escherichia coli): below 1 mM; Inhibition of growth of intracellularly deposited tubercle bacilli (in words) [4]: able to inhibit the growth; melting point: 127 to 129 °C
albomycin | – | – | – | – | MIC (bacterium): 0.008 µM
